Source: patent US20220152188A1, “TLR4-TLR7 LIGAND FORMULATIONS AS VACCINE ADJUVANTS” (The Regents of the University of California, priority 2019, published 2022)
Entries after “also recorded” stand apart in the source; their conditions may differ.

Columns and labels:
[1] = test system: inactivated Influenza A virus [A/California/04/2009 (H1N1) pdm09]; assay: Antigen-specific antibody production in mice immunized with IIAV plus adjuvant (ELISA); type: in vivo, BALB/c mice; settings: for total IgG levels: liposomal formulation
influenza virus = assay: Immunization with low dose recombinant hemagglutinin (rHA) and lethal virus challenge; type: in vivo, mice; settings: rHA 0.2 μg/injection
Protocol: To assess profile of protective immune responses against influenza virus infection induced by TLR4/TLR7 agonist-combined adjuvant, mice were immunized with low dose (0.2 μg/injection) recombinant hemagglutinin (rHA) and humoral responses and protection against lethal virus challenge (FIGS. 34A-2D).

TLR4 [2] = biological target: T1, TLR4 (Mus musculus, UniProt Q9JHF9+Q9QUK6); assay: TLR4, mouse (Tables 1-3); type: cell-based; settings: Compound 1 = 100
T1 sequence (Q9QUK6 26-835): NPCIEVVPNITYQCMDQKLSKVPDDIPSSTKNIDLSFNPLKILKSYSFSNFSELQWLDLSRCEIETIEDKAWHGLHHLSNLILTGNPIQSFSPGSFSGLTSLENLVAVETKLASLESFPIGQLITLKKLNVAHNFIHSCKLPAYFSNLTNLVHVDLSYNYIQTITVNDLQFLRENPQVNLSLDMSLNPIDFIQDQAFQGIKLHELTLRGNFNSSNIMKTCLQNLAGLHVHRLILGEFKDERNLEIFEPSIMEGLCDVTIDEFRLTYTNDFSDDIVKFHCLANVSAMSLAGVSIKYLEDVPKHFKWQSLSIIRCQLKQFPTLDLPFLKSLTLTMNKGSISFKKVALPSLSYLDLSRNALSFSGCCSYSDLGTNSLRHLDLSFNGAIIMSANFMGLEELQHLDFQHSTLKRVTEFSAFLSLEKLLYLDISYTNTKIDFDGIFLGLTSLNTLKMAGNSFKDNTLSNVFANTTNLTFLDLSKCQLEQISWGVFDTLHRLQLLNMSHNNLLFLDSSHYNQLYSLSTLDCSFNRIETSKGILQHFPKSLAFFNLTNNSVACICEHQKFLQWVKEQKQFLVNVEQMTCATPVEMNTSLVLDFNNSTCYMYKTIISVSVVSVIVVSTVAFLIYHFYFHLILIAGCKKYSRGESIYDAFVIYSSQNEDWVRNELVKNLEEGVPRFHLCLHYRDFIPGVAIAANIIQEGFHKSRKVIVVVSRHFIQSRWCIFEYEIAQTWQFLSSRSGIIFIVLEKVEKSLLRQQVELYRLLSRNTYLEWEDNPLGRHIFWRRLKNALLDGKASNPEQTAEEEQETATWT
T1 sequence (Q9JHF9 19-160): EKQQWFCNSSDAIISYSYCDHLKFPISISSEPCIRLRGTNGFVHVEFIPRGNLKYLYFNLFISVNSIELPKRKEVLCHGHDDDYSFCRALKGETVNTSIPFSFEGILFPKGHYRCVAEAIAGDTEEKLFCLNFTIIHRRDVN

TLR4 [3] = biological target: T2, TLR4 (Homo sapiens, UniProt O00206+Q9Y6Y9); assay: TLR4, human (Tables 1-3); type: cell-based; settings: Compound 1 = 100
Target sequence in this assay (O00206 24-839): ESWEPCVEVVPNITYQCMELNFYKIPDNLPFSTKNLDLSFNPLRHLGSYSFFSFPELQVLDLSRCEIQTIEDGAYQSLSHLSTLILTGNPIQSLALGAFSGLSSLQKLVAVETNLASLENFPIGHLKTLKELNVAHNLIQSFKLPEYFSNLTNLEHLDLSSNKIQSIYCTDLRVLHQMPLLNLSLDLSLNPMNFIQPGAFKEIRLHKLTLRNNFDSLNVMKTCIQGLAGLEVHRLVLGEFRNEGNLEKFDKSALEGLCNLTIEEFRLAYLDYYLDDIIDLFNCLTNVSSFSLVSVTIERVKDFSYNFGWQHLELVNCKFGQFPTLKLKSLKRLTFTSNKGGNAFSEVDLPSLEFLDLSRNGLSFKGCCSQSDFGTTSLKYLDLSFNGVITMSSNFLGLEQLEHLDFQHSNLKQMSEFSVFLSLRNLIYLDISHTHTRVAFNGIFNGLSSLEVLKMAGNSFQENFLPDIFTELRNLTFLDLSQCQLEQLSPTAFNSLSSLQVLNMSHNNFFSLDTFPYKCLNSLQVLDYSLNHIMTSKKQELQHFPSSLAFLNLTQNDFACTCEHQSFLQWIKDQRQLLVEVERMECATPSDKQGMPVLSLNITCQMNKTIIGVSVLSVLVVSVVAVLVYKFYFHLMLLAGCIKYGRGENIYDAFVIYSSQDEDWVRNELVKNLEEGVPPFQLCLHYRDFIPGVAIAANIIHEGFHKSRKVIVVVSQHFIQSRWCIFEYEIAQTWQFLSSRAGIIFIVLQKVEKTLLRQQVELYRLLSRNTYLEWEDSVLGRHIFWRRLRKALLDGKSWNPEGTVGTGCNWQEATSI
Target sequence in this assay (Q9Y6Y9 17-160 limits assumed): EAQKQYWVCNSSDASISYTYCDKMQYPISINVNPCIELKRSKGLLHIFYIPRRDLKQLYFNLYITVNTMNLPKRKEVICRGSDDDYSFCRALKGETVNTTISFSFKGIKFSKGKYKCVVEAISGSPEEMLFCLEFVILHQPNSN

IL-6 = assay: IL-6, mouse (Tables 1-3); type: cell-based; settings: Compound 1 = 100
IP-10 = assay: IP-10, mouse (Tables 1-3); type: cell-based; settings: Compound 1 = 100
IL-8 = assay: IL-8, human (Tables 1-3); type: cell-based; settings: Compound 1 = 100
mouse TLR4 = mouse TLR4 (Mus musculus, UniProt Q9JHF9+Q9QUK6); type: cell-based
IGH genes, TCRα and TCRβ = assay: NGS assay for BCR and TCR repertoire of inguinal lymph nodes; type: in vivo, BALB/c mice; settings: day 28
ovalbumin = assay: In vivo vaccination study with model antigen ovalbumin; settings: ovalbumin as antigen
murine primary cells = assay: In vitro immunoactivity / agonistic potency in murine cells; type: cell-based, mouse
TLR4 [4] = biological target: T2, TLR4; type: cell-based
Target sequence in this assay (O00206 24-839): as the sequence (O00206 24-839) above
Target sequence in this assay (Q9Y6Y9 17-160): as the sequence (Q9Y6Y9 17-160 limits assumed) above

[5] = test system: THP-1 cells and human primary cells; assay: In vitro immunoactivity / agonistic potency in human cells; type: cell-based; settings: THP-1 and human primary cells
[6] = single adjuvant, DMSO formulation, sera day 28
[7] = Table 1, R^3 series, footnotes not given
[8] = TLR4 agonist combined with 1V270, DMSO-water formulation, sera day 28
[9] = single adjuvant, DMSO formulation, i.m. days 0 and 21, sera day 28

With CCCCCCCCC=CCCCCCCCC(=O)OCC(COP(=O)(O)OCCNC(=O)c1ccc(Cn2c(=O)[nH]c3c(N)nc(OCCOC)nc32)cc1)OC(=O)CCCCCCCC=CCCCCCCCC (stereo not shown) [Compound 1V270] the “IgG2a:IgG1 ratio (Th1/Th2 immune balance)” value ([1]; DMSO-water formulation, individual animals) was “significantly shifted the Th2-biased immune responses by 1Z105 or 2B182C”, the “total IgG levels” value ([1]; sera day 28) was “comparable” and the “anti-HA IgG2a” value [1, 6] was “significantly increased anti-HA; also recorded: induced only anti-HA IgG2a production”. For the same molecule, the “Th1/Th2 bias of immune response” value (influenza virus) was “induced Th1 biased immune responses”.

O=C(CSc1nc2c([nH]c3ccccc32)c(=O)n1-c1ccccc1)NC1CCCCCC1 [Compound 9] was tested, and the “mouse TLR4” value (TLR4 [2]; Table 2, R^2 series) was 99, the “human TLR4” value (TLR4 [3]; Table 2, R^2 series) was 100 and the “mouse IL-6” value (IL-6; Table 2, R^2 series) was 126. The “mouse IP-10” value (IP-10; Table 2, R^2 series) was 107 and the “human IL-8” value (IL-8; Table 2, R^2 series) was 118.

CCCCCn1c2ccccc2c2nc(SCC(=O)NC3CCCCC3)n(-c3ccccc3)c(=O)c21 [Compound 49] was tested, and the “mouse TLR4” value (TLR4 [2]; Table 1, R^3 series) was 6, the “human TLR4” value (TLR4 [3]; Table 1, R^3 series) was 11 and the “mouse IL-6” value (IL-6; [7]) was 5. The “mouse IP-10” value (IP-10; Table 1, R^3 series) was under 1 and the “human IL-8” value (IL-8; Table 1, R^3 series) was 1.

In the case of Cn1c2ccccc2c2nc(SCC(=O)NC3CCCCC3)n(-c3ccccc3)c(=O)c21 [Compound 42], the “mouse TLR4” value (TLR4 [2]; Table 1, R^3 series) is reported as 100, the “human TLR4” value (TLR4 [3]; Table 1, R^3 series) is reported as 92 and the “mouse IL-6” value (IL-6; [7]) is reported as 101. For the same molecule, the “mouse IP-10” value (IP-10; Table 1, R^3 series) was 99 and the “human IL-8” value (IL-8; Table 1, R^3 series) was 79.

In the case of Cn1c2ccc(-c3ccco3)cc2c2nc(SCC(=O)NC3CCCCC3)n(-c3ccccc3)c(=O)c21 [Compound 2B182C], the “EC50 in murine TLR4 reporter cells in comparison with EC50 of 1Z105” value (mouse TLR4) is reported as 5.8 fold, the “anti-HA and anti-NA IgG1” value [1, 8] is reported as “significantly higher IgG1 compared to 1Z105” and the “anti-HA and anti-NA IgG2a” value [1, 8] is reported as “increased the levels of anti HA- and anti NA-Abs”. For the same molecule, the “total IgG levels” value ([1]; sera day 28) was “comparable”, the “anti-HA and anti-NA IgG1” value [1, 9] was “significantly higher levels of IgG1 against HA and NA; also recorded: significantly increased IgG1 antibody against both HA and NA” and the “anti-HA and anti-NA IgG1” value ([1]; single adjuvant, DMSO formulation, i.m. days 0 and 21, sera day 28, listed as 2B182c) was “higher level of antigen specific IgG1”. The “anti-NA IgG2a” value [1, 6] was “enhanced anti-NA Abs; also recorded: enhanced anti-NA specific IgG2a”, the “antigen specific IgM” value [1, 6] was “only slightly increased” and the “anti-NA IgG2a” value ([1]; single adjuvant, DMSO formulation, sera day 28, listed as 2B182c) was “higher level of antigen specific IgG1 and anti-NA IgG2a”. For the same molecule, the “TCR clonality (TCRα and TCRβ)” value (IGH genes, TCRα and TCRβ) was “increased”, the “serum IgG1 levels” value (ovalbumin) was “induced higher serum IgG1 levels” and the “antigen-specific IgG2a” value (ovalbumin; with 1V270) was “additively enhance the release of antigen-specific IgG2a induced by 1V270”. The “immunoactivity / agonistic potency in murine cells” value (murine primary cells) was “higher agonistic potency than 1Z105”, the “EC50 in human TLR4 reporter cells in comparison with EC50 of 1Z105” value (TLR4 [4]) was 870 fold and the “immunoactivity / agonistic potency in human cells” value [5] was “higher agonistic potency than 1Z105”.

Cn1c2ccccc2c2nc(SCC(=O)NC3CCCCC3)n(-c3ccccc3)c(=O)c21 [Compound 1Z105] was tested, and the “anti-HA and anti-NA IgG2a” value [1, 8] was “failed in most cases; also recorded: failed to enhance IgG2a production induced by 1V270”, the “anti-HA and anti-NA IgG1” value [1, 9] was “significantly higher levels of IgG1 against HA and NA” and the “immunoactivity / agonistic potency in murine cells” value (murine primary cells) was “good immunoactivity in murine cells”. For the same molecule, the “immunoactivity / agonistic potency in human cells” value [5] was “devoid of significant activity in human cells”.

In the case of O=C(CSc1nc2c([nH]c3ccccc32)c(=O)n1-c1ccccc1)NC1CCCC1 [Compound 11], the “mouse TLR4” value (TLR4 [2]; Table 2, R^2 series) is reported as 28, the “human TLR4” value (TLR4 [3]; Table 2, R^2 series) is reported as 23 and the “mouse IL-6” value (IL-6; Table 2, R^2 series) is reported as 53. The “mouse IP-10” value (IP-10; Table 2, R^2 series) was 52 and the “human IL-8” value (IL-8; Table 2, R^2 series) was 5.

In the case of Cc1cccc(NC(=O)CSc2nc3c([nH]c4ccccc43)c(=O)n2-c2ccccc2)c1 [Compound 17], the “mouse TLR4” value (TLR4 [2]; Table 2, R^2 series) is reported as 13, the “human TLR4” value (TLR4 [3]; Table 2, R^2 series) is reported as 116 and the “mouse IL-6” value (IL-6; Table 2, R^2 series) is reported as 19. The “mouse IP-10” value (IP-10; Table 2, R^2 series) was 55 and the “human IL-8” value (IL-8; Table 2, R^2 series) was 54.

In the case of O=C(CSc1nc2c([nH]c3ccccc32)c(=O)n1-c1ccc2ccccc2c1)NC1CCCCC1 [Compound 39], the “mouse TLR4” value (TLR4 [2]; Table 3, R^1 series) is reported as 6, the “human TLR4” value (TLR4 [3]; Table 3, R^1 series) is reported as 3 and the “mouse IL-6” value (IL-6; Table 3, R^1 series) is reported as 3. For the same molecule, the “mouse IP-10” value (IP-10; Table 3, R^1 series) was under 1 and the “human IL-8” value (IL-8; Table 3, R^1 series) was under 1.

With O=C(CSc1nc2c([nH]c3ccccc32)c(=O)n1-c1ccccc1)NC1CCC1 [Compound 12] the “mouse TLR4” value (TLR4 [2]; Table 2, R^2 series) was 18, the “human TLR4” value (TLR4 [3]; Table 2, R^2 series) was 32 and the “mouse IL-6” value (IL-6; Table 2, R^2 series) was 35. The “mouse IP-10” value (IP-10; Table 2, R^2 series) was 66 and the “human IL-8” value (IL-8; Table 2, R^2 series) was 19.
